In assay [1] the test system is NO production in BV2 cells (microglia). Nature of the assay: NO production in LPS-stimulated BV2 cells (Griess reaction), antineuritic activity. The format is cell-based. The settings on record: 10 μM, 100 ng/ml LPS for 24 hours, nitrite by Griess reaction, FIG. 26. The protocol: BV2 cells (microglia) were dispensed in DMEM culture solution at a concentration of 6×10^4 cells/well in a 96 well plate, and then treated with the compounds of the present invention at a concentration of 10 μM, and incubated for 24 hours. After 24 hours, each sample was treated with a concentration of 10 μM, reacted for 1 hour, and then stimulated with 100 ng/ml of LPS for 24 hours. The production of nitrite, a soluble oxidation product of NO (nitric oxide), was measured in the culture medium through the Griess reaction.

The subject of assay [2] is nerve growth factor (NGF) in C6 glioma cells. Nature of the assay: Ability to promote increase of nerve growth factor (NGF) produced in cell medium, ELISA. It counts as cell-based, Rat. The settings on record: 10 μM, 24 hours, FIG. 22. The protocol:
Rat astrocyte-derived C6 glioma cells were dispensed in DMEM culture solution at a concentration of 1×10^5 cells/well in a 24 well plate and stabilized overnight, and then treated with the compounds of the present invention at a concentration of 10 μM, and reacted in a 37° C. incubator for 24 hours. The treated medium was collected and centrifuged, and then absorbance was measured using an enzyme linked immunoassay kit (ELISA kit).

Turning to `COc1ccc(CCN2Cc3c(cc(OC)c(CCO)c3O)C2=O)cc1` [Formula 15, 4-hydroxy-5-(2-hydroxyethyl)-6-methoxy-2-(4-methoxyphenethyl)isoindolin-1-one], the “NO production compared to untreated control group” value in assay [1] is recorded as “significantly reduced”.
On to `C=Cc1c(OC)cc2c(c1O)CN(CCc1ccc(C(F)(F)F)cc1)C2=O` [Formula 20, 4-hydroxy-6-methoxy-2-(4-(trifluoromethyl)phenethyl)-5-vinylisoindolin-1-one], for which the “nerve growth factor produced in the cell medium” value (shortened to “nerve growth factor produced”) in assay [2] is reported as “significantly excellent”.
Turning to `COc1cc2c(c(O)c1Br)CN(CCc1ccc(C(F)(F)F)cc1)C2=O` [Formula 6, 5-bromo-4-hydroxy-6-methoxy-2-(4-(trifluoromethyl)phenethyl)isoindolin-1-one], in assay [2], the “nerve growth factor produced” value was “significantly excellent”.
On to `COc1cc2c(c3c1CCO3)CN(CCc1ccccc1)C2=O` [Formula 19, 4-methoxy-7-phenethyl-7,8-dihydro-2H-furo[2,3-e]isoindole-6(3H)-1], for which the “NO production compared to untreated control group” value in assay [1] is reported as “significantly reduced”.
The same measure, in the same setting: under `COc1cc2c(c(O)c1CCCO)CN(CCc1ccccc1)C2=O` [Formula 17, 4-hydroxy-5-(3-hydroxypropyl)-6-methoxy-2-phenethyl isoindolin-1-one] stands “significantly reduced”.
On to `C=Cc1c(OC)cc2c(c1OCOC)CN(CCc1ccc(OC)cc1)C2=O` [Formula 13, 6-methoxy-4-(methoxymethoxy)-2-(4-methoxyphenethyl)-5-vinylisoindolin-1-one], for which the “NO production compared to untreated control group” value in assay [1] was “significantly reduced”. For the same compound, the “nerve growth factor produced” value in assay [2] is given as “significantly excellent”.
On to `COc1cc2c(c(O)c1Br)CN(CCc1ccc(F)cc1)C2=O` [Formula 1, 5-bromo-2-(4-fluorophenethyl)-4-hydroxy-6-methoxyisoindolin-1-one], for which the “nerve growth factor produced” value in assay [2] is reported as “significantly excellent”.
As to `C=Cc1c(OC)cc2c(c1O)CN(CCc1ccc(OC)cc1)C2=O` [Formula 21], the “NO production compared to untreated control group” value in assay [1] is reported as “significantly reduced”.
Still for that read-out and setting: the entry for `COCOc1c(Br)c(OC)cc2c1CN(CCc1ccc(OC)cc1)C2=O` [Formula 12, 5-bromo-6-methoxy-4-(methoxymethoxy)-2-(4-methoxyphenethyl)isoindolin-1-one] is “significantly reduced”.
